Test results reported in PMC12207908, “The broad‐spectrum antimicrobial peptide BMAP‐27B potentiates carbapenems against NDM‐producing pathogens in food animals” (mLife, 2025).
Values after ≈ are worked out from the molar mass of the structure shown.

Assays:
CREC6 = assay: MIC, broth microdilution; type: cell-based; conditions: Escherichia coli, MHB, 1 × 10^6 CFU/ml, 16–18 h, 37°C, independent triplicates
Experimental: (§1) The MIC of BMAP‐27B and other antibiotics was determined using the broth microdilution method, following the guidelines established by the Clinical and Laboratory Standards Institute (CLSI). Briefly, the bacterial cultures were grown to the logarithmic growth phase and subsequently diluted in Mueller–Hinton broth (MHB) to achieve a final concentration of 1 × 10^6 CFU/ml. BMAP‐27B and the other antibiotics were prepared in twofold serial dilutions in MHB and mixed with an equal volume of bacterial suspension in 96‐well polypropylene microtiter plates.

CREC3 = assay: MIC, broth microdilution; type: cell-based; conditions: Escherichia coli, MHB, 1 × 10^6 CFU/ml, 16–18 h, 37°C, independent triplicates
Experimental: as §1

S. aureus ATCC = assay: MIC, broth microdilution; type: cell-based; conditions: Staphylococcus aureus, MHB, 1 × 10^6 CFU/ml, 16–18 h, 37°C, independent triplicates
Experimental: as §1

P. aeruginosa UCBPP-PA14 = assay: MIC, broth microdilution; type: cell-based; conditions: Pseudomonas aeruginosa, MHB, 1 × 10^6 CFU/ml, 16–18 h, 37°C, independent triplicates
Experimental: as §1

CRAB1 = assay: MIC, broth microdilution; type: cell-based; conditions: Acinetobacter baumannii, MHB, 1 × 10^6 CFU/ml, 16–18 h, 37°C, independent triplicates
Experimental: as §1

CRAB2 = assay: MIC, broth microdilution; type: cell-based; conditions: Acinetobacter baumannii, MHB, 1 × 10^6 CFU/ml, 16–18 h, 37°C, independent triplicates
Experimental: as §1

[1] = tested on: En. faecium (Clinical; MDR; pig, faeces), upper row; assay: MIC, broth microdilution; type: cell-based; conditions: Enterococcus faecium, En. faecium clinical MDR isolate, MHB, 16–18 h, 37°C, independent triplicates
Experimental: as §1

CREC4 = assay: MIC, broth microdilution; type: cell-based; conditions: Escherichia coli, MHB, 1 × 10^6 CFU/ml, 16–18 h, 37°C, independent triplicates
Experimental: as §1

Salmonella SL1344 = assay: MIC, broth microdilution; type: cell-based; conditions: MHB, 1 × 10^6 CFU/ml, 16–18 h, 37°C, independent triplicates
Experimental: as §1

PREC2 = assay: MIC, broth microdilution; type: cell-based; conditions: Escherichia coli, MHB, 1 × 10^6 CFU/ml, 16–18 h, 37°C, independent triplicates
Experimental: as §1

PREC3 = assay: MIC, broth microdilution; type: cell-based; conditions: Escherichia coli, MHB, 1 × 10^6 CFU/ml, 16–18 h, 37°C, independent triplicates
Experimental: as §1

CREC2 = assay: MIC, broth microdilution; type: cell-based; conditions: Escherichia coli, MHB, 1 × 10^6 CFU/ml, 16–18 h, 37°C, independent triplicates
Experimental: as §1

PREC1 = assay: MIC, broth microdilution; type: cell-based; conditions: Escherichia coli, MHB, 1 × 10^6 CFU/ml, 16–18 h, 37°C, independent triplicates
Experimental: as §1

CREC1 = assay: MIC, broth microdilution; type: cell-based; conditions: Escherichia coli, MHB, 1 × 10^6 CFU/ml, 16–18 h, 37°C, independent triplicates
Experimental: as §1

[2] = tested on: En. faecium (Clinical; MDR; pig, faeces), lower row; assay: MIC, broth microdilution; type: cell-based; conditions: Enterococcus faecium, En. faecium clinical MDR isolate, MHB, 16–18 h, 37°C, independent triplicates
Experimental: as §1

CRKP2 [3] = assay: MIC, broth microdilution; type: cell-based; conditions: Klebsiella pneumoniae, MHB, 1 × 10^6 CFU/ml, 16–18 h, 37°C, independent triplicates
Experimental: as §1

CRKP1 = assay: MIC, broth microdilution; type: cell-based; conditions: Klebsiella pneumoniae, MHB, 1 × 10^6 CFU/ml, 16–18 h, 37°C, independent triplicates
Experimental: as §1

CREC5 = assay: MIC, broth microdilution; type: cell-based; conditions: Escherichia coli, MHB, 1 × 10^6 CFU/ml, 16–18 h, 37°C, independent triplicates
Experimental: as §1

P. aeruginosa UCBPP-PA01 = assay: MIC, broth microdilution; type: cell-based; conditions: Pseudomonas aeruginosa, UCBPPPA01, MHB, 1 × 10^6 CFU/ml, 16–18 h, 37°C, independent triplicates
Experimental: as §1

CRKP5 = assay: MIC, broth microdilution; type: cell-based; conditions: Klebsiella pneumoniae, MHB, 1 × 10^6 CFU/ml, 16–18 h, 37°C, independent triplicates
Experimental: as §1

CREC7 = assay: MIC, broth microdilution; type: cell-based; conditions: Escherichia coli, MHB, 1 × 10^6 CFU/ml, 16–18 h, 37°C, independent triplicates
Experimental: as §1

CRKP3 = assay: MIC, broth microdilution; type: cell-based; conditions: Klebsiella pneumoniae, MHB, 1 × 10^6 CFU/ml, 16–18 h, 37°C, independent triplicates
Experimental: as §1

PRCB1 = assay: MIC, broth microdilution; type: cell-based; conditions: Citrobacter, MHB, 1 × 10^6 CFU/ml, 16–18 h, 37°C, independent triplicates
Experimental: as §1

CRCB2 = assay: MIC, broth microdilution; type: cell-based; conditions: Citrobacter, MHB, 1 × 10^6 CFU/ml, 16–18 h, 37°C, independent triplicates
Experimental: as §1

CRKP6 = assay: MIC, broth microdilution; type: cell-based; conditions: Klebsiella pneumoniae, MHB, 1 × 10^6 CFU/ml, 16–18 h, 37°C, independent triplicates
Experimental: as §1

CRCB3 = assay: MIC, broth microdilution; type: cell-based; conditions: Citrobacter, MHB, 1 × 10^6 CFU/ml, 16–18 h, 37°C, independent triplicates
Experimental: as §1

CRKP4 = assay: MIC, broth microdilution; type: cell-based; conditions: Klebsiella pneumoniae, MHB, 1 × 10^6 CFU/ml, 16–18 h, 37°C, independent triplicates
Experimental: as §1

CRCB1 = assay: MIC, broth microdilution; type: cell-based; conditions: Citrobacter, MHB, 1 × 10^6 CFU/ml, 16–18 h, 37°C, independent triplicates
Experimental: as §1

CRKP2 [4] = assay: Mouse peritonitis model induced by CRKP2; type: in vivo, BALB/c mice; conditions: 1.0 × 10^8 CFU CRKP2 i.p.; treatment at 1 and 6 h; BMAP‐27B 3, 6 or 9 mg/kg, MEM 10 mg/kg, combination 3 + 10 mg/kg; tissues 24 h after infection
Experimental: Male BALB/c mice were used in this study, with six mice per group. The mice were infected via an intraperitoneal injection with a suspension of 1.0 × 10^8 CFU of CRKP2. At 1 and 6 h postinfection, the mice were treated with PBS, BMAP‐27B at doses of 3, 6, or 9 mg/kg, MEM at 10 mg/kg alone, or a combination of BMAP‐27B (3 mg/kg) and MEM (10 mg/kg). After 24 h of bacterial challenge, the surviving mice were euthanized by cervical dislocation. The kidneys, livers, spleens, and lungs of each mouse were harvested within […] postinfection. A portion of these organs was taken for histologic analysis using H&E staining, while the remaining tissue samples were weighed, homogenized in sterile normal saline, and serially diluted in saline. A volume of 100 µl of the homogenate dilutions was uniformly plated onto agar plates containing MEM (8 μg/ml). After overnight incubation at 37°C, colonies were counted and the results were expressed as CFU/g.

MIC (CREC6)	MIC (CREC3)	MIC (S. aureus ATCC)	MIC (P. aeruginosa UCBPP-PA14)	MIC (CRAB1)	MIC (CRAB2)	MIC [1]	MIC (CREC4)	MIC (Salmonella SL1344)	MIC (PREC2)	MIC (PREC3)	MIC (CREC2)	MIC (PREC1)	MIC (CREC1)	MIC [2]	MIC (CRKP2 [3])	MIC (CRKP1)	MIC (CREC5)	MIC (P. aeruginosa UCBPP-PA01)	MIC (CRKP5)	Structure (SMILES)	other results
> 32 µg/mL	> 32 µg/mL	2 µg/mL (≈ 4.19 µM)	2 µg/mL (≈ 4.19 µM)	> 32 µg/mL	> 32 µg/mL	8 µg/mL (≈ 16.8 µM)	> 32 µg/mL	4 µg/mL (≈ 8.38 µM)	> 32 µg/mL	2 µg/mL (≈ 4.19 µM)	> 32 µg/mL	> 32 µg/mL	> 32 µg/mL	32 µg/mL (≈ 67 µM)						CNC(C)C1CCC(N)C(OC2C(N)CC(N)C(OC3OCC(C)(O)C(NC)C3O)C2O)O1 (stereo not shown) [GEN, gentamicin]	
32 µg/mL (≈ 107 µM)	32 µg/mL (≈ 107 µM)	< 1 µg/mL	4 µg/mL (≈ 13.4 µM)	> 32 µg/mL	> 32 µg/mL	> 32 µg/mL	> 32 µg/mL	< 1 µg/mL	< 1 µg/mL	< 1 µg/mL	> 32 µg/mL	< 1 µg/mL	> 32 µg/mL	> 32 µg/mL	32 µg/mL (≈ 107 µM)	32 µg/mL (≈ 107 µM)	32 µg/mL (≈ 107 µM)	< 1 µg/mL	4 µg/mL (≈ 13.4 µM)	C[C@@H](O)[C@H]1C(=O)N2C(C(=O)O)=C(SCCN=CN)C[C@H]12 [IMP, imipenem]	MIC (CREC7): 32 µg/mL (≈ 107 µM); MIC (CRKP3): > 32 µg/mL; MIC (PRCB1): < 1 µg/mL; MIC (CRCB2): 32 µg/mL (≈ 107 µM); MIC (CRKP6): 4 µg/mL (≈ 13.4 µM); MIC (CRCB3): 8 µg/mL (≈ 26.7 µM); MIC (CRKP4): 16 µg/mL (≈ 53.4 µM); MIC (CRCB1): > 32 µg/mL
32 µg/mL (≈ 83.4 µM)	32 µg/mL (≈ 83.4 µM)	< 1 µg/mL	2 µg/mL (≈ 5.22 µM)	> 32 µg/mL	> 32 µg/mL	8 µg/mL (≈ 20.9 µM)	> 32 µg/mL	< 1 µg/mL	< 1 µg/mL	< 1 µg/mL	16 µg/mL (≈ 41.7 µM)	< 1 µg/mL	> 32 µg/mL	16 µg/mL (≈ 41.7 µM)	> 32 µg/mL	> 32 µg/mL	32 µg/mL (≈ 83.4 µM)	< 1 µg/mL	32 µg/mL (≈ 83.4 µM)	C[C@@H](O)[C@H]1C(=O)N2C(C(=O)O)=C(S[C@@H]3CN[C@H](C(=O)N(C)C)C3)[C@H](C)[C@H]12 [MEM, meropenem]	bacterial titers in the liver, spleen, lung, and kidneys compared to the infection group (CRKP2 [4]): only slightly lower; MIC (CREC7): 32 µg/mL (≈ 83.4 µM); MIC (CRKP3): > 32 µg/mL; MIC (PRCB1): < 1 µg/mL; MIC (CRCB2): 32 µg/mL (≈ 83.4 µM); MIC (CRKP6): > 32 µg/mL; MIC (CRCB3): 32 µg/mL (≈ 83.4 µM); MIC (CRKP4): 32 µg/mL (≈ 83.4 µM); MIC (CRCB1): 32 µg/mL (≈ 83.4 µM)

Structure (SMILES)	MIC (CREC6)	MIC (CREC3)	MIC (S. aureus ATCC)	MIC (P. aeruginosa UCBPP-PA14)	MIC (CRAB1)	MIC (CRAB2)	MIC [1]	MIC (CREC4)	MIC (Salmonella SL1344)	MIC (PREC2)	MIC (PREC3)	MIC (CREC2)	MIC (PREC1)	MIC (CREC1)	MIC [2]	MIC (CRKP2 [3])	MIC (CRKP1)	MIC (CREC5)	MIC (P. aeruginosa UCBPP-PA01)	MIC (CRKP5)	other results
CN(C)[C@@H]1C(O)=C(C(N)=O)C(=O)[C@@]2(O)C(O)=C3C(=O)c4c(O)cccc4[C@@](C)(O)[C@H]3C[C@@H]12 [TET, tetracycline]	> 32 µg/mL	> 32 µg/mL	< 1 µg/mL	16 µg/mL (≈ 36 µM)	> 32 µg/mL	> 32 µg/mL	> 32 µg/mL	> 32 µg/mL	4 µg/mL (≈ 9 µM)	> 32 µg/mL	> 32 µg/mL	> 32 µg/mL	> 32 µg/mL	> 32 µg/mL	> 32 µg/mL	> 32 µg/mL	> 32 µg/mL	> 32 µg/mL	16 µg/mL (≈ 36 µM)	> 32 µg/mL	MIC (CREC7): > 32 µg/mL; MIC (CRKP3): > 32 µg/mL; MIC (PRCB1): > 32 µg/mL; MIC (CRCB2): > 32 µg/mL; MIC (CRKP6): 32 µg/mL (≈ 72 µM); MIC (CRCB3): > 32 µg/mL; MIC (CRKP4): > 32 µg/mL; MIC (CRCB1): > 32 µg/mL
